Results from ChEMBL document CHEMBL5512671, “Structure-Based Optimization of Novel Sterol 24-C-Methyltransferase Inhibitors for the Treatment of Candida albicans Infections” (J Med Chem, 2024).
Calls of active or inactive are those of the source. The calls are words filed in the database; no cut-off is given here.

Legend:
Candida parapsilosis [1] = assay: Antifungal activity against Candida parapsilosis CP1 assessed as inhibition of fungal growth incubated for 24 hrs by CLSI protocol based broth microdilution method; type: functional; details: Lodderomyces parapsilosis
Candida albicans [2] = assay: Downregulation of HWP1 expression in Candida albicans SC5314 at 1 ug/ml incubated for 6 hrs by qPCR analysis; type: functional; details: dose 1.0 µg/ml
Candida albicans [3] = assay: Antifungal activity against Candida albicans SC5314 assessed as inhibition of hyphae growth measured after 5 days cultured under solid spider agar medium by microscopy based analysis; type: functional, organism-based; details: dose 0.25-1 µg/ml, time 5.0 day
Candida albicans [4] = assay: Antifungal activity against Candida albicans SC5314 infected in Balb/C mouse candidiasis model assessed as decrease in skin fungal burden by measuring fold change at 0.5 % administered topically and measured after 72 hrs in presence of tridemorph; type: functional
Candida albicans [5] = assay: Synergistic antifungal activity against Candida albicans SC5314 assessed as fractional inhibitory concentration index incubated for 24 hrs in presence of tridemorph by broth microdilution checkerboard assay; type: functional
[Candida] auris [6] = Antifungal activity against Candida auris CBS12774 assessed as inhibition of fungal growth incubated for 24 hrs by CLSI protocol based broth microdilution method; type: functional; details: Candidozyma auris
[7] = Cytotoxicity against human HUVEC cells incubated for 48 hrs by CCK-8 method; type: toxicity, cell-based
Candida albicans [8] = assay: Upregulation of NRG1 expression in Candida albicans SC5314 at 1 ug/ml incubated for 6 hrs by qPCR analysis; type: functional; details: dose 1.0 µg/ml
Candida albicans [9] = assay: Antifungal activity against Candida albicans SC5314 infected in Balb/C mouse candidiasis model assessed as appearance of inflammatory infiltrates at 0.5 % administered topically and measured after 72 hrs by H and E staining based analysis; type: functional, organism-based
[10] = molecular target: T1, Sterol 24-C-methyltransferase (Candida albicans (strain SC5314 / ATCC MYA-2876) (Yeast)) (UniProt O74198); assay: Thermal stabilization of recombinant Candida albicans SC5314 Erg6 transfected in Escherichia coli BL21 (DE3) at 0.5 ug/ml incubated for 30 mins at 43 to 57 degreeC by Western blot analysis; details: dose 0.5 µg/ml
T1 sequence (whole entry): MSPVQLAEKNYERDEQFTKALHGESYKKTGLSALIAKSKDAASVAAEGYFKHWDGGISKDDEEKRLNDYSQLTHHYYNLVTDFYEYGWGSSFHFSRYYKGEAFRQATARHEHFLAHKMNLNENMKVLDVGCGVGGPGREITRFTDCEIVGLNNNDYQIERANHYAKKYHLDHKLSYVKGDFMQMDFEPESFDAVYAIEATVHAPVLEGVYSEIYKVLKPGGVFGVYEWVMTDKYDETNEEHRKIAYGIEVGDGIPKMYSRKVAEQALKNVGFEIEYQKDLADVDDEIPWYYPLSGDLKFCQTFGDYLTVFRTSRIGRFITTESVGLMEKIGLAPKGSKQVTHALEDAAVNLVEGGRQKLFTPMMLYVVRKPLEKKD

Candida albicans [11] = assay: Antifungal activity against Candida albicans SC5314 assessed as inhibition of hyphae growth measured after 5 days cultured under YPD embedded agar medium and 10mM GlcNAc by microscopy based analysis; type: functional, organism-based; details: dose 0.25-1 µg/ml, time 5.0 day
Candida albicans [12] = assay: Synergistic antifungal activity against Candida albicans SC5314 assessed as inhibition of fungal growth incubated for 24 hrs in presence of terbinafine by broth microdilution checkerboard assay; type: functional
Nakaseomyces glabratus [13] = assay: Antifungal activity against Candida glabrata CG2 assessed as effect on cell size at 1 ug/ml measured after 6 hrs by microscopy based analysis; type: functional, organism-based; details: dose 1.0 µg/ml
Candida albicans [14] = assay: Antifungal activity against Candida albicans SC5314 assessed as inhibition of morphological transition at 0.5 ug/ml measured after 5 days cultured under solid spider agar medium by microscopy based analysis relative to control; type: functional; set-up: scale not given: the % may be the effect or the level left; details: dose 0.5 µg/ml; time 5 day
Candida albicans [15] = assay: Fungistatic activity against Candida albicans SC5314 at 1 ug/ml incubated for 3 hrs in presence of terbinafine by SYTOX staining based analysis; type: functional, organism-based; details: dose 1.0 µg/ml
Candida albicans [16] = assay: Antifungal activity against Candida albicans SC5314 infected in Balb/C mouse candidiasis model assessed as decrease in skin fungal burden by measuring fold change at 0.5 % administered topically and measured after 72 hrs in presence of terbinafine; type: functional
Candida albicans [17] = assay: Antifungal activity against Candida albicans SC5314 infected in Balb/C mouse candidiasis model assessed as appearance of inflammatory infiltrates at 0.5 % administered topically and measured after 72 hrs in presence of tridemorph by H and E staining based analysis; type: functional, organism-based
Candida albicans [18] = assay: Downregulation of RAS1 gene level in Candida albicans SC5314 at 1 ug/ml incubated for 6 hrs by qPCR analysis; type: functional; details: dose 1.0 µg/ml
Nakaseomyces glabratus [19] = assay: Antifungal activity against Candida glabrata CG2 assessed as inhibition of hyphae formation at 1 ug/ml measured after 6 hrs by microscopy based analysis; type: functional, organism-based; details: dose 1.0 µg/ml
[Candida] auris [20] = Antifungal activity against Candida auris CBS12774 assessed as inhibition of hyphae formation at 1 ug/ml measured after 6 hrs by microscopy based analysis; type: functional, organism-based; details: Candidozyma auris, dose 1.0 µg/ml
Candida albicans [21] = assay: Downregulation of ECE1 expression in Candida albicans SC5314 at 1 ug/ml incubated for 6 hrs by qPCR analysis; type: functional; details: dose 1.0 µg/ml
Candida albicans [22] = assay: Antifungal activity against Candida albicans SC5314 infected in Balb/C mouse candidiasis model assessed as decrease in skin fungal burden by measuring fold change at 0.5% administered topically and measured after 72 hrs; type: functional
Candida albicans [23] = assay: Synergistic antifungal activity against Candida albicans SC5314 assessed as fractional inhibitory concentration index incubated for 24 hrs in presence of terbinafine by broth microdilution checkerboard assay; type: functional
[24] = molecular target: T2, Sterol 24-C-methyltransferase (Candida albicans (strain SC5314 / ATCC MYA-2876) (Yeast), UniProt O74198); assay: Inhibition of recombinant Candida albicans SC5314 Erg6 methyltransferase activity using zymosterol as substrate incubated for 15 mins followed by substrate addition by liquid scintillation counter analysis
T2 sequence (O74198 whole entry): T1 sequence (whole entry)

Candida albicans [25] = assay: Antifungal activity against Candida albicans SC5314 infected in Balb/C mouse candidiasis model assessed as filamentation defect at 0.5 % administered topically and measured after 72 hrs by PAS staining based analysis; type: functional, organism-based
Candida albicans [26] = assay: Antifungal activity against Candida albicans SC5314 assessed as inhibition of morphological transition at 0.5 ug/ml measured after 5 days cultured under YPD embedded agar medium by microscopy based analysis relative to control; type: functional; set-up: scale not given: the % may be the effect or the level left; details: dose 0.5 µg/ml; time 5 day
Candida albicans [27] = assay: Inhibition of cell adhesion in Candida albicans SC5314 to human HGE cells measured after 90 mins by fluorescence microscopy based analysis; type: functional; details: dose 0.5-2 µg/ml
Candida albicans [28] = assay: Antifungal activity against Candida albicans CAI4/pBA1-ERG6 assessed as inhibition of hyphae growth incubated for 24 hrs by CLSI protocol based broth microdilution method; type: functional, organism-based
Candida albicans [29] = assay: Antifungal activity against Candida albicans SC5314 assessed as inhibition of fungal growth incubated for 24 hrs by CLSI protocol based broth microdilution method; type: functional
Candida albicans [30] = assay: Antifungal activity against Candida albicans SC5314 assessed as inhibition of hyphae growth incubated for 24 hrs by CLSI protocol based broth microdilution method; type: functional
Candida albicans [31] = assay: Synergistic antifungal activity against Candida albicans SC5314 assessed as inhibition of fungal growth incubated for 24 hrs in presence of tridemorph by broth microdilution checkerboard assay; type: functional
Candida parapsilosis [32] = assay: Antifungal activity against Candida parapsilosis CP1 assessed as effect on cell size at 1 ug/ml measured after 6 hrs by microscopy based analysis; type: functional, organism-based; details: dose 1.0 µg/ml

In the case of `Cc1c(-n2c(-c3ccc4ccccc4c3)cs/c2=N\c2ccccc2)c(=O)n(-c2ccccc2)n1C`, the MIC (Candida parapsilosis [1]) is reported as greater than 128 µg/mL, the Activity (Candida albicans [2]) is reported as “Active” and the Activity (Candida albicans [3]) is reported as “Dose-Dependent Effect”. The “fold change (FC)” value (Candida albicans [4]) was 60.26, the “fractional inhibitory concentration index (FICI)” value (Candida albicans [5]) was less than 0.1 and the MIC ([Candida] auris [6]) was greater than 128 µg/mL. For the same molecule, the EC50 at 48 h [7] was greater than 50 µg/mL, the Activity (Candida albicans [8]) was “Active” and the Activity (Candida albicans [9]) was “Active”. The Activity [10] was “Active”, the Activity (Candida albicans [11]) was “Dose-Dependent Effect” and the MIC80 (Candida albicans [12]) was 1 µg/mL. The Activity (Nakaseomyces glabratus [13]) was “inactive”, the Activity (Candida albicans [14]) was 100% and the Activity (Candida albicans [15]) was “Active”. For the same molecule, the “fold change (FC)” value (Candida albicans [16]) was 59.11, the Activity (Candida albicans [17]) was “inactive” and the Activity (Candida albicans [18]) was “Active”. For the same molecule, the Activity (Nakaseomyces glabratus [19]) was “Active”, the Activity ([Candida] auris [20]) was “Active” and the Activity (Candida albicans [21]) was “Active”. The “fold change (FC)” value (Candida albicans [22]) was 2.86, the “fractional inhibitory concentration index (FICI)” value (Candida albicans [23]) was less than 0.1 and the IC50 [24] was 273 nM. The Activity (Candida albicans [25]) was “Active”, the Activity (Candida albicans [26]) was 100% and the inhibition (Candida albicans [27]) was “Dose-Dependent Effect”. For the same molecule, the Activity (Candida albicans [28]) was “Active”, the MIC80 (Candida albicans [29]) was greater than 128 µg/mL and the MIC50 (Candida albicans [30]) was greater than 128 µg/mL. The MIC80 (Candida albicans [31]) was 1 µg/mL and the Activity (Candida parapsilosis [32]) was “inactive”.
